# Data taken from ChEMBL document CHEMBL3102800, “Discovery and optimization of N-(3-(1,3-dioxo-2,3-dihydro-1H-pyrrolo[3,4-c]pyridin-4-yloxy)phenyl)benzenesulfonamides as novel GPR119 agonists” (Bioorg Med Chem Lett, 2014).
# Tests used:
# [1] = biological target: T1, Glucose-dependent insulinotropic receptor (Homo sapiens, UniProt Q8TDV5); assay: Agonist activity at human GPR119 expressed in HEK293 cells assessed as cAMP accumulation after 30 mins; format: functional, cell-based
# T1 sequence (Q8TDV5 whole entry): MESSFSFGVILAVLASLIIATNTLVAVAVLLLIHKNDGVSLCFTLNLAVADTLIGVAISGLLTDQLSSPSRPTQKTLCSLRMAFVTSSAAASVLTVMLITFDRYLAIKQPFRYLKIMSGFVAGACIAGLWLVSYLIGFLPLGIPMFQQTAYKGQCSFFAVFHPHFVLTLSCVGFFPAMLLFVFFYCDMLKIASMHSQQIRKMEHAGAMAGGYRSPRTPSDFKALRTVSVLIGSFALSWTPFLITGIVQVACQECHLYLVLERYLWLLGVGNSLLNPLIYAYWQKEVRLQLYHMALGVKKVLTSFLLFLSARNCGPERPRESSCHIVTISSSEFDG
# [2] = biological target: T2, Glucose-dependent insulinotropic receptor (Homo sapiens) (UniProt Q8TDV5); assay: Agonist activity at human GPR119 expressed in HEK293 cells assessed as cAMP accumulation after 30 mins relative to isopropyl 4-(1-(4-(methylsulfonyl)phenyl)-1H-pyrazolo[3,4-d]pyrimidin-4-yloxy)piperidine-1-carboxylate; format: functional, cell-based
# T2 sequence (whole entry): T1 sequence (Q8TDV5 whole entry)
# [3] = Intrinsic clearance in rat liver microsomes; format: ADME; settings: read-out: CLH
# [4] = Metabolic stability in rat liver microsomes assessed as compound remaining at 1 uM after 30 mins; format: ADME; settings: read-out: Stability
# [5] = Clearance in iv dosed rat; format: ADME, organism-based; settings: in vivo
# [6] = Intrinsic clearance in human liver microsomes; format: ADME; settings: read-out: CLH
# [7] = Plasma protein binding in human; format: ADME, cell-free; settings: read-out: PPB
# [8] = Half life in rat at 0.5 mg/kg, iv; format: ADME, organism-based; parameters: dose 0.5 mg/kg, route intravenous; settings: in vivo
# [9] = Clearance in rat at 0.5 mg/kg, iv; format: ADME, organism-based; parameters: dose 0.5 mg/kg, route intravenous; settings: in vivo
# [10] = biological target: T3, Nuclear receptor subfamily 1 group I member 2 (Homo sapiens, UniProt O75469); assay: Activation of human PXR
# T3 sequence (O75469 whole entry): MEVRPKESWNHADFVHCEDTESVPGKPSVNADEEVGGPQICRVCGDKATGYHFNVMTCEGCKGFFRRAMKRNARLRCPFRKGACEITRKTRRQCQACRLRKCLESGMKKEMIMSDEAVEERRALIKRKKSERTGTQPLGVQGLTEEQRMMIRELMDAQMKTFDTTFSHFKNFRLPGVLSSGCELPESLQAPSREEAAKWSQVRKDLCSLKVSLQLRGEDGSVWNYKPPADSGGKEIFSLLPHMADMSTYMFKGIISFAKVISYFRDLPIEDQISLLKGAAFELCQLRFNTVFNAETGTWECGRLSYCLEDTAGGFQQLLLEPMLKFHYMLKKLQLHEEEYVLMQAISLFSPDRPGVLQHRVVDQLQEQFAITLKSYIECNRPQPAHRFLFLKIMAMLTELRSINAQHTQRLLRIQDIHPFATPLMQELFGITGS
# [11] = biological target: T4, G-protein coupled receptor 119 (Macaca fascicularis) (UniProt G7Q3P2); assay: Agonist activity at cynomolgus monkey GPR119 assessed as cAMP accumulation relative to control; format: functional
# T4 sequence (whole entry): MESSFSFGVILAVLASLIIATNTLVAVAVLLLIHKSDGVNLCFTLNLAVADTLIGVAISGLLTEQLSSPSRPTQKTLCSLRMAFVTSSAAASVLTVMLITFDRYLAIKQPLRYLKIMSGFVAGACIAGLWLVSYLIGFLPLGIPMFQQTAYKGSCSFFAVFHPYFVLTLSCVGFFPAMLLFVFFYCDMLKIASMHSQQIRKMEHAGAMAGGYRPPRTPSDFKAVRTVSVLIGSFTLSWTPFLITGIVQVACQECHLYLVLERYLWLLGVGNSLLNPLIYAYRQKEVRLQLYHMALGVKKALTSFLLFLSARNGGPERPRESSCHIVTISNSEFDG
# [12] = Intrinsic clearance in human liver microsomes at 1 uM after 30 mins; format: ADME; settings: read-out: CLH
# [13] = biological target: T5, Glucose-dependent insulinotropic receptor (Mus musculus, UniProt Q7TQP3); assay: Agonist activity at mouse GPR119 assessed as cAMP accumulation; format: functional
# T5 sequence (Q7TQP3 whole entry): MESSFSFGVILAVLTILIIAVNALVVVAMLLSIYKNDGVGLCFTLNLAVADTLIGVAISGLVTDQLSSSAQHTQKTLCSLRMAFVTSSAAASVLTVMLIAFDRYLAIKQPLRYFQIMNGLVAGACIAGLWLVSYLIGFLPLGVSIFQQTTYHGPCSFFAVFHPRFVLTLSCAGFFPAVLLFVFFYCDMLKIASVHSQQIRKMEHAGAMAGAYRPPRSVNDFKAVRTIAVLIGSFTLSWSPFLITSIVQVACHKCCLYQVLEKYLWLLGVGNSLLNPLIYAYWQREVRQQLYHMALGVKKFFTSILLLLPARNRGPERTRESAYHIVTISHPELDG
# [14] = Oral bioavailability in rat at 2 mg/kg; format: ADME, organism-based; settings: in vivo
# [15] = Half life in cynomolgus monkey at 0.5 mg/kg, iv; format: ADME, organism-based, Macaca fascicularis; parameters: dose 0.5 mg/kg, route intravenous; settings: in vivo
# Bile salt export pump = Bile salt export pump (Homo sapiens, UniProt O95342); assay: Binding affinity to BSEP (unknown origin)
# [16] = Volume of distribution at steady state in cynomolgus monkey at 0.5 mg/kg, iv; format: ADME, organism-based, Macaca fascicularis; parameters: dose 0.5 mg/kg, route intravenous; settings: in vivo, read-out: Vdss
# [17] = biological target: T6, Glucose-dependent insulinotropic receptor (Rattus norvegicus, UniProt Q7TQN8); assay: Agonist activity at rat GPR119 assessed as cAMP accumulation; format: functional
# T6 sequence (Q7TQN8 whole entry): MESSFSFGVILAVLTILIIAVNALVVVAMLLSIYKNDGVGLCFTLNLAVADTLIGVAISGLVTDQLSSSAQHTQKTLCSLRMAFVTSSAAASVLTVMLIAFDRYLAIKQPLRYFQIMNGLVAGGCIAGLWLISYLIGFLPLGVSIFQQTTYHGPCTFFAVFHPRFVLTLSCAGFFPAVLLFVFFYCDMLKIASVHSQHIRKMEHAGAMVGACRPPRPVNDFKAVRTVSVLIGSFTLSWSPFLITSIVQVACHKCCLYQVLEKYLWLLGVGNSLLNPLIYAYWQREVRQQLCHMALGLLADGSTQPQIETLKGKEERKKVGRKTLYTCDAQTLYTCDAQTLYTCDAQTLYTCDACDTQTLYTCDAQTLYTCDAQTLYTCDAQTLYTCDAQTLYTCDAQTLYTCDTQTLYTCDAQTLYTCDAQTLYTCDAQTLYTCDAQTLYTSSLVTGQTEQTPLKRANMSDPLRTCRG
# [18] = Clearance in cynomolgus monkey at 0.5 mg/kg, iv; format: ADME, organism-based, Macaca fascicularis; parameters: dose 0.5 mg/kg, route intravenous; settings: in vivo
# [19] = Inhibition of Cytochrome P450 (unknown origin); format: ADME; settings: human
# [20] = biological target: T7, G-protein coupled receptor 119 (Macaca fascicularis, UniProt G7Q3P2); assay: Agonist activity at cynomolgus monkey GPR119 assessed as cAMP accumulation; format: functional
# T7 sequence (G7Q3P2 whole entry): T4 sequence (whole entry)
# [21] = Volume of distribution at steady state in rat at 0.5 mg/kg, iv; format: ADME, organism-based; parameters: dose 0.5 mg/kg, route intravenous; settings: in vivo, read-out: Vdss
# [22] = Oral bioavailability in cynomolgus monkey at 2 mg/kg; format: ADME, organism-based, Macaca fascicularis; settings: in vivo
# [23] = Plasma protein binding in cynomolgus monkey; format: ADME, cell-free, Macaca fascicularis; settings: read-out: PPB
# [24] = Metabolic stability in human liver microsomes assessed as compound remaining at 1 uM after 30 mins; format: ADME; settings: read-out: Stability
# Bile salt export pump, sequence (O95342 whole entry): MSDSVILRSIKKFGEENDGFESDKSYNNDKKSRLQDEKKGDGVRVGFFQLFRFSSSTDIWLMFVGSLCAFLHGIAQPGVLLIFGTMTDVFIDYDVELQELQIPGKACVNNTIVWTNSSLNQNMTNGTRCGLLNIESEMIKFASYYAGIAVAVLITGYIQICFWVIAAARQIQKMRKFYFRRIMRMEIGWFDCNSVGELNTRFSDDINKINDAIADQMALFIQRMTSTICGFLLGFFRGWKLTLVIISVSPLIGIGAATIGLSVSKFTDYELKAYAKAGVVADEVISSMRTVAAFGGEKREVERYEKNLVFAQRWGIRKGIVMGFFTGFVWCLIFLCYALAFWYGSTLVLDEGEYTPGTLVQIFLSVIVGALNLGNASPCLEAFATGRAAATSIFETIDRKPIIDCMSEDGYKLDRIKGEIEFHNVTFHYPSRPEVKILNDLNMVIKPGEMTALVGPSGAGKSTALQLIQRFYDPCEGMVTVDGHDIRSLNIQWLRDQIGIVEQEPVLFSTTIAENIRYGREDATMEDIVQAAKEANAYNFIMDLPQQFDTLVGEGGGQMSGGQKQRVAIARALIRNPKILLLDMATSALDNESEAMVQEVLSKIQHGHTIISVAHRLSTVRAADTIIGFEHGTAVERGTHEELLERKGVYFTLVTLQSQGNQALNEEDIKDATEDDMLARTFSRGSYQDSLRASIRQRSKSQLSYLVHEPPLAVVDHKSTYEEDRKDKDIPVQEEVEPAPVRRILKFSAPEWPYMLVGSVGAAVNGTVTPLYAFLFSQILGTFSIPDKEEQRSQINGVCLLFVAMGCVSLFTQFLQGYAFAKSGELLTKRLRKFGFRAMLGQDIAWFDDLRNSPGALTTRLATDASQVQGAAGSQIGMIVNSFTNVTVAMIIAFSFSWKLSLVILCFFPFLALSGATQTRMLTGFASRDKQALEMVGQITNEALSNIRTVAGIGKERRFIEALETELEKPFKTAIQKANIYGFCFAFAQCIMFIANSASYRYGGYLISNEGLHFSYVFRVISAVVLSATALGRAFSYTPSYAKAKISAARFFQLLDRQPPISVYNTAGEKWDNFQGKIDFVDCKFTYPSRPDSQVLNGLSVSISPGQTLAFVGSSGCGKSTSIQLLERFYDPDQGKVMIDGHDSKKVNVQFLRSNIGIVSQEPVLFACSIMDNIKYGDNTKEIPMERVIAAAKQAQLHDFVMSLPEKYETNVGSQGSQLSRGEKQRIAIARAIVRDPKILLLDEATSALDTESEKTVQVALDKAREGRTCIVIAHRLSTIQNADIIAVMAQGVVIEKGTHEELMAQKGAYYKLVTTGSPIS
Compound,EC50 [1] [nM],Efficacy [2] [%],microsomal CLint [3] [µL/min/mg],also measured
Cc1cc2c(c(Oc3cccc(S(=O)(=O)Nc4ccc(Cl)cc4)c3)n1)C(=O)N(C(C)C)C2=O,238,,,
Cc1cc2c(c(Sc3ccc(C)c(NS(=O)(=O)c4ccc(Cl)cc4)c3)n1)C(=O)N(C(C)C)C2=O,224,85,,
Cc1cc2c(c(Oc3cccc(NS(=O)(=O)c4ccc(Cl)cc4)c3)n1)C(=O)N(C1CCCC1)C2=O,69,95,,
O=C1c2cc(C3CC3)nc(Oc3cccc(NS(=O)(=O)c4ccc(Cl)cc4)c3)c2C(=O)N1C1CC1,45,99,63,microsomal CLint [6]: 27 µL/min/mg
Cc1cc2c(c(Nc3ccc(C)c(NS(=O)(=O)c4ccc(Cl)cc4)c3)n1)C(=O)N(C(C)C)C2=O,382,81,,
Cc1cc2c(c(Oc3cccc(NS(=O)(=O)c4ccc(Cl)cc4)c3F)n1)C(=O)N(C(C)C)C2=O,493,,,
Cc1cc2c(c(Oc3cccc(NS(=O)(=O)c4ccc(Cl)cc4)c3)n1)C(=O)NC2=O,121,109,,
Cc1cc2c(c(Oc3cccc(NC(=O)c4ccc(Cl)cc4)c3)n1)C(=O)N(C(C)C)C2=O,> 30000,,40,
Cc1cc2c(c(Oc3cccc(NS(=O)(=O)c4ccc(Cl)cc4)c3)n1)C(=O)N(c1ccccc1)C2=O,299,102,,
Cc1cc2c(c(Oc3cc(F)cc(NS(=O)(=O)c4ccc(Cl)cc4)c3)n1)C(=O)N(C(C)C)C2=O,357,,,

# The next molecules have a lower EC50 [1] than those just listed; values first:
EC50 [1] [nM],Efficacy [2] [%],microsomal CLint [3] [µL/min/mg],Compound,also measured
19,97,,COc1cc2c(c(Oc3cccc(NS(=O)(=O)c4ccc(Cl)cc4)c3)n1)C(=O)N(C1CC1)C2=O,
11,,> 400,Cc1cc2c(c(Oc3cccc(N(C)S(=O)(=O)c4ccc(Cl)cc4)c3)n1)C(=O)N(C(C)C)C2=O,
15,111,,Cc1cc2c(c(Oc3cccc(NS(=O)(=O)c4ccc(Cl)cc4)c3)n1)C(=O)N(C1CC1)C2=O,
13,99,250,Cc1cc2c(c(Oc3cccc(NS(=O)(=O)c4ccc(Cl)cc4)c3)n1)C(=O)N(C(C)C)C2=O,"remaining at 0.5 h, 1 µM [4]: 15%; clearance [5]: 80 mL/min/kg"
41,,,CC(C)OC(=O)N1CCC(Oc2ncnc3c2cnn3-c2ccc(S(C)(=O)=O)cc2)CC1,
23,122,,Cc1cc2c(c(Oc3cccc(NS(=O)(=O)c4ccc(Cl)cc4)c3)n1)C(=O)N(C)C2=O,
16,,84,Cc1cc2c(c(Oc3cc(NS(=O)(=O)c4ccc(Cl)cc4)ccc3F)n1)C(=O)N(C(C)C)C2=O,"fraction unbound [7]: < 0.01; half-life [8]: 1.5 h; clearance [9]: 11.8 mL/min/kg; Activity [10]: Not Active; Efficacy [11]: 102%; microsomal CLint at 1 µM [12]: 29 µL/min/mg; EC50 [13]: 1900 nM; bioavailability [14]: 95%; half-life [15]: 5.6 h; Activity (Bile salt export pump): Not Active; Vd [16]: 1.1 L/kg; EC50 [17]: 2050 nM; clearance [18]: 7.5 mL/min/kg; inhibition (INH) [19]: Not Active; EC50 [20]: 73 nM; Vd [21]: 1.5 L/kg; bioavailability [22]: 29%; fraction unbound [23]: < 0.01; remaining at 0.5 h, 1 µM [24]: 88%"
11,120,,CCN1C(=O)c2cc(C)nc(Oc3cccc(NS(=O)(=O)c4ccc(Cl)cc4)c3)c2C1=O,
33,,29,Cc1cc2c(c(Oc3cc(NS(=O)(=O)c4ccc(Cl)cc4)ccc3Cl)n1)C(=O)N(C(C)C)C2=O,clearance [5]: 3.67 mL/min/kg
9,,131,Cc1cc2c(c(Oc3ccc(C)c(NS(=O)(=O)c4ccc(Cl)cc4)c3)n1)C(=O)N(C(C)C)C2=O,
19,76,,Cc1cc2c(c(Sc3cccc(NS(=O)(=O)c4ccc(Cl)cc4)c3)n1)C(=O)N(C(C)C)C2=O,
